{
  "source": "patent US20040024543A1",
  "about": "“Methods and systems for analyzing complex biological systems” (priority 2001, published 2004)",
  "key": {"[1]": {"test_system": "Saccharomyces cerevisiae wild type strain BY4743", "assay": "AF1 yeast gene expression analysis (microarray) after antifungal drug treatment", "format": "cell-based", "conditions": "2×MIC, two hours", "description": "Saccharomyces cerevisiae wild type strain BY4743 was purchased from American Type Culture Center (ATCC, Manassas, Va.). The yeast strain was grown in YPD or SD media. […] The cultures started from fresh single colonies were grown in 1.0 ml YPD overnight at 30° C. […] The OD600 was adjusted to 1.0 with YPD media, then 2.0 ml of each was inoculated into three 250 ml flasks, each containing 50 ml of SD media. […] The cells were kept growing for another two hours, then collected by centrifugation at 4000 rpm for 5 minutes at 4° C. Pellets were washed once with ice-cold water, then were lyophilized overnight at 4° C. […] Tubes were vortexed for 30 seconds, then incubated for 10 minutes at room temperature (RT). […] Tubes were incubated for 10 minutes at RT. Samples were centrifuged for 20 minutes as before. Pellets were washed with 400 μl 70% ethanol and centrifuged for 10 minutes as before. The pellet was then dissolved in 100 μl nuclease-free water. RNA quality was determined using the Bioanalyzer 2100 and the RNA 6000 assay (Agilent Technologies, Palo Alto, Calif.) according to manufacturer's instructions. RNA concentrations were determined spectrophotometrically by measuring the absorption at 260 nm in an Ultrospec 2000 (Pharmacia Biotech, Piscataway, N.J.). […] Labeled cRNAs were evaluated using the RNA 6000 assay on the Agilent Bioanalyzer 2100. Labeled cRNA concentrations were determined spectrophotometrically by measuring the absorption at 260 nm in an Ultrospec 2000 (Pharmacia Biotech, Piscataway, N.J.). […] Each pair of samples to be hybridized were independently labeled and hybridized utilizing a fluor reversal for a total of two hybridizations per sample pair. […] Each feature was determined from an array's associated pattern file and a detection algorithm. Intensity values for each feature were determined after subtracting background derived from an average of negative control features. […] Data was evaluated after combining results from fluor reversal replicate hybridizations. […]"}, "Arabidopsis thaliana [2]": {"test_system": "Arabidopsis thaliana", "assay": "MOA1 biochemical (metabolite) profiling by LC-MS and GC-MS of sprayed Arabidopsis", "conditions": "MOA1, 20 min and 1 hour after spraying"}, "Magnaporthe grisea": {"test_system": "Magnaporthe grisea", "format": "cell-based", "conditions": "in the presence of the compound"}, "Arabidopsis thaliana [3]": {"test_system": "Arabidopsis thaliana", "assay": "MOA1 gene expression profiling (22,000 gene arrays) of sprayed Arabidopsis", "conditions": "regulated genes at 1 hr compared with internal list of essential genes"}, "Arabidopsis thaliana [4]": {"test_system": "Arabidopsis thaliana", "assay": "SOA1 phenotypic analysis of herbicide-treated Arabidopsis (MIC, Tmic, leaf traits)", "format": "in vivo"}},
  "data": [
    {"compound": "C[C@@H]1[C@H](O)[C@@H](C)/C=C/C=C/C=C/C=C/C=C/C=C/C=C/[C@H](O[C@@H]2O[C@H](C)[C@@H](O)[C@H](N)[C@@H]2O)C[C@@H]2O[C@](O)(C[C@@H](O)C[C@@H](O)[C@H](O)CC[C@@H](O)C[C@@H](O)CC(=O)O[C@H]1C)C[C@H](O)[C@H]2C(=O)O", "note": "[Amphoteracin B]", "values": [
      {"measurement": "# Transripts perturbed by treatment", "setting": "[1]; P < 0.05", "result": 4363},
      {"measurement": "# Transripts perturbed by treatment", "setting": "[1]; P < 0.1", "result": 4652}
    ]},
    {"compound": "CP(=O)(O)CCC(N)C(=O)O", "note": "(centres unmarked) [Glufosinate]", "values": [
      {"measurement": "stress-related (commonly regulated) metabolites", "setting": "Arabidopsis thaliana [2]", "result": "Only a few, if any"},
      {"measurement": "nitrogen source utilization of M. grisea", "setting": "Magnaporthe grisea", "result": "only able to utilize glutamine and glutamate as nitrogen sources"},
      {"measurement": "No. of Lethal Genes Altered", "setting": "Arabidopsis thaliana [3]", "result": 10},
      {"measurement": "characteristic morphological symptoms", "setting": "Arabidopsis thaliana [4]; SOA1, in words", "result": "Chlorosis and leaf curling"},
      {"measurement": "tMic (Dev.)", "setting": "Arabidopsis thaliana [4]; SOA1, coded score of time to full range of symptoms at MIC", "result": 1}
    ]},
    {"compound": "CC[C@@H]([C@H](C)O)n1ncn(-c2ccc(N3CCN(c4ccc(OC[C@@H]5CO[C@@](Cn6cncn6)(c6ccc(F)cc6F)C5)cc4)CC3)cc2)c1=O", "note": "[Posaconazole]", "values": [
      {"measurement": "# Transripts perturbed by treatment", "setting": "[1]; P < 0.05", "result": 690}
    ]}
  ]
}
